pIC50: −log10 of the molar value.
Assays:
Type in all cases: cell-based
A-673 cells = assay: Proliferation assay, adherent cells, crystal violet; details: Homo sapiens, A673, 96 h, A-673 (ATCC CRL-1598), rhabdomyosarcoma, 4 days incubation
Method: (§1) Human tumour cells were originally obtained from the American Type Culture Collection (ATCC), the Deutsche Sammlung von Mikroorganismen and Zellkulturen (DSMZ) (German Collection of Microorganisms and Cell Cultures) in Braunschweig, CLS Cell Lines Service GmbH in Eppelheim, the Institut Gustave Roussy (Villejuif, France), or the Charité in Berlin (table 1). Adherently growing cells (A-673, RD, Rh30, Rh41, SK-N-AS, NCI-H2286, HCC-366, FaDu, CAL-33, RPMI-2650, SiHa) were plated out in a density of 3000-4000 cells/measurement point, depending on the rate of growth of the cell line, in a 96-well multititre plate in 200 μl of growth medium (DMEM/HAMS F12, 2 mM L-glutamine, 10% foetal calf serum). After 24 hours, the cells of one plate (zero plate) were dyed with crystal violet (see below), whereas the medium of the other plates was replaced with fresh culture medium (200 μl) to which the test substances were added in various concentrations (0 μM, and also in the range of 0.001-3 μM; the final concentration of the solvent dimethyl sulphoxide was 0.5%). The cells were incubated for 4 days in the presence of the test substances. Cell proliferation was determined by dyeing the cells with crystal violet: the cells were fixed at room temperature for 15 min by adding 20 μl/measurement point of an 11% strength glutaraldehyde solution. After washing the fixed cells three times with water, the plates were dried at room temperature. The cells were dyed by adding 100 μl/measurement point of a 0.1% strength crystal violet solution (pH adjusted to pH 3 by adding acetic acid). After washing the dyed cells three times with water, the plates were dried at room temperature. The dye was dissolved by adding 100 μl/measurement point of a 10% strength acetic acid solution. Absorbance was determined photometrically at a wavelength of 595 nm. The percentage change in cell growth was calculated by normalizing the measured values to the absorbance values of the zero plate (=0%) and the absorbance of the untreated (0 μM) cells (=100%). The measured data were normalized to 0% inhibition (cell proliferation without inhibitor) and 100% inhibition (zero plate). The IC50 values were determined by means of a four parameter fit.
(§2) The substances were investigated in the following cell lines, which, by way of example, represent the specified indications (table 1).

RD cells = assay: as above; details: Homo sapiens, 96 h, RD (CLS-300401), rhabdomyosarcoma, 4 days incubation
Method: as §1, §2

HCC-366 cells = assay: as above; details: Homo sapiens, HCC366, 96 h, HCC-366 (DSMZ ACC-492), squamous-cell carcinoma, lung, 4 days incubation
Method: as §1, §2

FaDu cells = assay: as above; details: Homo sapiens, 96 h, FaDu (ATCC HTB-43), squamous-cell carcinoma, head and nape, 4 days incubation
Method: as §1, §2

SiHa cells = assay: as above; details: Homo sapiens, 96 h, SiHa (ATCC HTB-35), squamous-cell carcinoma, cervix, 4 days incubation
Method: as §1, §2

CAL-33 cells = assay: as above; details: Homo sapiens, 96 h, CAL-33 (DSMZ ACC-447), squamous-cell carcinoma, head and nape, 4 days incubation
Method: as §1, §2

Rh41 cells = assay: as above; details: Homo sapiens, 96 h, Rh41 (DSMZ ACC-592), rhabdomyosarcoma, 4 days incubation
Method: as §1, §2

RPMI-2650 cells = assay: as above; details: Homo sapiens, 96 h, RPMI-2650 (DSMZ ACC-287), squamous-cell carcinoma, head and nape, 4 days incubation
Method: as §1, §2

SK-N-AS cells = assay: as above; details: Homo sapiens, 96 h, SK-N-AS (ATCC CRL-2137), neuroblastoma, 4 days incubation
Method: as §1, §2

NCI-H2286 cells = assay: as above; details: Homo sapiens, 96 h, NCI-H2286 (ATCC CRL-5938), squamous-cell carcinoma, lung, 4 days incubation
Method: as §1, §2

Rh30 cells = assay: as above; details: Homo sapiens, 96 h, Rh30 (DSMZ ACC-489), rhabdomyosarcoma, 4 days incubation
Method: as §1, §2

Jeko-1 cells [1] = assay: Proliferation assay, suspension cells, Cell Titer-Glo; details: Homo sapiens, 96 h; Jeko-1 (DSMZ ACC-553), mantle cell lymphoma; 4 days incubation; CTG
Method: (§3) Cells growing in suspension (HBL-1, TMD-8, GRANTA-519, Jeko-1) were plated out in a cell density of 2000-4000 cells/measurement point, depending on the rate of growth of the cell line, in a black-walled, clear-bottom 96-well multititre plate in 100 μl of growth medium (DMEM/HAMS F12, 2 mM L-glutamine, 10% foetal calf serum). After 24 hours, cell density was determined in one plate (zero plate) by adding 60 μl/measurement point of CTG solution (Promega Cell Titer-Glo solution (catalogue numbers G755B and G756B)), subsequent incubation for 2 min followed by 10 min shaking (in the dark) and measurement of luminescence (VICTOR V, Perkin Elmer). For the test plates, the test substances were prepared in various concentrations (0 μM, and also in the range of 0.001-3 μM; the final concentration of the solvent dimethyl sulphoxide was 0.5%) as 3× concentrated solutions in fresh growth medium. Aliquots of 50 μl each were added to the cell suspensions and the cells were incubated for 4 days in the presence of the test substances. Subsequently, cell density was determined using CTG solution as described above and IC50 values were calculated by means of a four parameter fit.
as §2

TMD-8 cells = assay: as above; details: Homo sapiens, TMD8, 96 h; TMD-8 (Charité, Berlin), diffuse large B-cell lymphoma; 4 days incubation; CTG
Method: as §3, §2

HBL-1 cells = assay: as above; details: Homo sapiens, HBL1, 96 h; HBL-1 (Charité, Berlin), diffuse large B-cell lymphoma; 4 days incubation; CTG
Method: as §3, §2

GRANTA-519 cells = assay: as above; details: Homo sapiens, 96 h; GRANTA-519 (DSMZ ACC-342), mantle cell lymphoma; 4 days incubation; CTG
Method: as §3, §2

Jeko-1 cells [2] = assay: Cytotoxic action after 24 hours, WST-1 viability; details: Homo sapiens, Jeko-1 (Institut Gustave Roussy), mantle cell lymphoma, after 24 hours of incubation
Method: (§4) The cytotoxic action of BAY 1000394 on Jeko-1 and UPN-1 cells was also determined after 24 hours of incubation with the substance. To this end, 50 000 cells per measurement point were plated out in 96-well plates and incubated with BAY 1000394 in various concentrations in the range of 0.001 to 1.0 μM. After 24 hours, the viability of the cells was determined in accordance with the WST-1 method (Roche Diagnostics, catalogue number 11644807001).
as §2

UPN-1 cells = assay: Cytotoxic action after 24 hours, WST-1 viability; details: Homo sapiens, UPN1, UPN-1 (Institut Gustave Roussy), mantle cell lymphoma, after 24 hours of incubation
Method: as §4, §2

**Q.** How did the pIC50 (A-673 cells) turn out when C[C@@H](O)[C@@H](C)Oc1nc(Nc2ccc([S@](=N)(=O)C3CC3)cc2)ncc1C(F)(F)F [BAY 1000394, (R)-S-cyclopropyl-S-(4-{[4-{[(1R, 2R)-2-hydroxy-1-methylpropyl]oxy}-5-(trifluoromethyl)pyrimidin-2-yl]amino}phenyl)sulphoximide] was run?
**A.** 8.01

**Q.** What about the pIC50 (RD cells) of the same molecule?
**A.** 7.59

**Q.** And the pIC50 (HCC-366 cells)?
**A.** 7.70

**Q.** What about the pIC50 (FaDu cells) of the same molecule?
**A.** 7.34

**Q.** And the pIC50 (SiHa cells)?
**A.** 8.00

**Q.** And the pIC50 (CAL-33 cells)?
**A.** 7.72

**Q.** What about the pIC50 (Rh41 cells) of the same molecule?
**A.** 7.77

**Q.** And the pIC50 (RPMI-2650 cells)?
**A.** 7.89

**Q.** And the pIC50 (SK-N-AS cells)?
**A.** 7.66

**Q.** And the pIC50 (NCI-H2286 cells)?
**A.** 8.15

**Q.** And the pIC50 (Rh30 cells)?
**A.** 7.64

**Q.** What about the pIC50 (Jeko-1 cells [1]) of the same molecule?
**A.** 7.70

**Q.** What about the pIC50 (TMD-8 cells) of the same molecule?
**A.** 7.46

**Q.** What about the pIC50 (HBL-1 cells) of the same molecule?
**A.** 7.62

**Q.** What about the pIC50 (GRANTA-519 cells) of the same molecule?
**A.** 7.36

**Q.** What about the pIC50 (Jeko-1 cells [2]) of the same molecule?
**A.** 7.51

**Q.** What about the pIC50 (UPN-1 cells) of the same molecule?
**A.** 8.33
